Laboratory results taken from patent publication US20230061083A1, “KRAS G12C INHIBITOR COMPOUND AND USE THEREOF” (Evopoint Biosciences Co., Ltd., priority 2019, published 2023).

Tests used:
[1] = Plasma protein binding (PPB), RED plate dialysis, mouse plasma; assay type: in vitro ADME; details: 37° C., read-out: PPB (% free state) M
Description: (§1) Human (H), Rat (R) and Mouse (M) Plasma Protein Binding (PPB)
(§2) A test compound and a positive control were each mixed with blank plasma to a final concentration of 1 μM. The mixture was added to a RED plate plasma sample chamber, followed by addition of a dialysis buffer in the buffer chamber. The sample was prepared in triplicate for each compound. The chambers were sealed, and the plate was incubated at 37° C. with shaking at 60 rpm for 5 h. After incubation, the samples were transferred out of the plasma chamber and the buffer chamber and treated as shown in Table 5. After centrifugation at 5594 g for 15 min, the supernatant was collected and analyzed by LC/MS/MS.
(§3) The compound concentration in each sample was expressed in terms of the ratio between peak areas (ratio of peak area of compound to peak area of internal standard) by mass spectrometry analysis, and the plasma protein binding was calculated according to the following formulas.
(§4) % free state=(buffer chamber peak area ratio/plasma chamber peak area ratio)×100%
(§5) % bound state=100%−% free state

[2] = Plasma protein binding (PPB), RED plate dialysis, rat plasma; assay type: in vitro ADME; details: 37° C., read-out: PPB (% free state) R
Description: as §1, §2, §3, §4, §5

[3] = test system: ERK phosphorylation in H358 cells; experiment: In-cell western blot assay for ERK phosphorylation in H358 cells; assay type: cell-based; details: Homo sapiens, NCI-H358, 10000 nM to 0.051 nM, 3-fold dilution, read-out: H358 p-ERK IC50
Description: In-Cell Western Blot Assay for ERK Phosphorylation in H358 Cells
H358 cells were thawed and pre-cultured for 3 days to be in a good state (RPMI 1640+10% FBS+1% P/S). The cells were plated on to a 384-well plate, and a test compound, positive control compounds (AMG510 and isomers thereof) and a negative control were added. The compound was at concentrations from 10000 nM to 0.051 nM. 3-fold dilution was performed. The mixture was well mixed and incubated at 37° C. and 5% CO2. The cells were washed with PBS and suspended in methanol. After another washing with PBS, a blocking buffer was added. After 1 h of blocking at room temperature, a primary antibody mixture (rabbit anti pERK, mouse anti GAPDH) was added, followed by overnight incubation at 4° C. The cells were washed 3 times with PBST, and a secondary antibody mixture (goat anti rabbit 800CW and goat anti mouse 680RD) was added, followed by incubation at room temperature in the dark. The 384-well plate was reversed and centrifuged at 1000 rpm for 1 min, and read on an Odyssey CLx fluorescence imaging system for fluorescence signal values, which was corrected using DMSO and ARS1620. The specific calculation is as follows:
Relative Signal=Signal Value(total channel 800)/Signal Value(total channel 700)
Relative pERK=(Sample−Ave_L)/(Ave_H−Ave_L).
The IC50 values of the compounds were calculated using a four-parameter fitting algorithm, specifically as follows:
Y=Bottom+(Top−Bottom)/(1+10^((Log IC50−X)×HillSlope))

[4] = Plasma protein binding (PPB), RED plate dialysis, human plasma; assay type: in vitro ADME; details: 1 μM, 37° C., 5 h, read-out: PPB (% free state) H
Description: as §1, §2, §3, §4, §5

[5] = test system: plasma proteins; experiment: as above; assay type: in vitro ADME
Description: as §1, §2, §3, §4, §5

[6] = biological target: KRAS G12C protein (GDP-KRAS-4B-G12C) (Homo sapiens, UniProt P01116, G12C); experiment: Assay for binding rate to KRAS G12C protein by LC-MS method; details: 3 uM compound; for Binding rate to KRAS G12C protein (LC-MS POC, %) 3 uM/5 min: 5 min incubation at room temperature; for Binding rate to KRAS G12C protein (LC-MS POC, %) 3 uM/30 min: 30 min incubation at room temperature
Description: Assay for Binding Rate to KRAS G12C Protein by LC-MS Method
A 10 mM stock solution of a test compound in DMSO was prepared. […] An equal volume of GDP buffer (20 mM Hepes, pH 7.5, 50 mM NaCl, 0.5 mM MgCl2, 10 mM EDTA, 2 mM DTT, GDP) was added to prepare KRASG12C protein loaded with GDP.
After incubation at room temperature for 5 min and 30 min, the reaction was terminated by addition of 5 μL of 5% formic acid. After being centrifuged at 15,000 rpm for 10 min, the mixture was subjected to LC-MS analysis and data analysis.
The percent binding of a test compound to KRASG12C protein was calculated as: Percent binding to KRAS G12C (%)=peak height of conjugate of test compound and KRAS G12C protein/[peak height of conjugate of test compound and KRAS G12C protein+peak height of free KRAS G12C protein] x 100.

| fraction unbound at 5 h, 1 μM [1] | fraction unbound at 5 h, 1 μM [2] | IC50 [3] | fraction unbound at 5 h, 1 μM [4] | SMILES | also measured |
| --- | --- | --- | --- | --- | --- |
| 0.005 | 0.114 | 3540 nM | 0.076 | C=C(F)C(=O)N1CCN(c2nc(=O)n(-c3c(C(C)C)ncnc3C(C)C)c3nc(-c4c(F)cccc4F)c(F)cc23)[C@@H](C)C1 [SZ-014137, reference compound] | – |
| – | – | 207 nM | – | C=CC(=O)N1CCN(c2nc(=O)n(-c3c(C(C)C)ncnc3C(C)C)c3c2cc(F)c(-c2c(F)ccc(F)c2O)[n+]3[O-])[C@@H](C)C1 [SZ-014062AB] | – |
| 0.336 | 0.517 | 90 nM | 0.455 | C=CC(=O)N1CCN(c2nc(=O)n(-c3c(C(C)C)ncnc3C(C)C)c3c2cc(F)c(-c2ccccc2)[n+]3[O-])[C@@H](C)C1 [SZ-014129] | molar concentration not bound to plasma proteins, times higher than reference compound SZ-014141 ([5]; versus SZ-014141): no less than 10 times |
| 0.039 | 0.188 | 139 nM | 0.074 | C=CC(=O)N1CCN(c2nc(=O)n(-c3c(C(C)C)cccc3C(C)C)c3c2cc(F)c(-c2ccccc2)[n+]3[O-])[C@@H](C)C1 [SZ-014130] | molar concentration not bound to plasma proteins, times higher than reference compound SZ-014142 ([5]; versus SZ-014142): no less than 30 times |
| – | – | 9.4 nM | – | C=CC(=O)N1CCN(c2nc(=O)n(-c3c(C(C)C)ncnc3C(C)C)c3c2cc(Cl)c(-c2ccccc2F)[n+]3[O-])[C@@H](C)C1 [SZ-014108A/B] | – |
| – | – | 494 nM | – | C=CC(=O)N1CCN(c2nc(=O)n(-c3c(C(C)C)ncnc3C(C)C)c3c2cc(F)c(-c2cccc(F)c2O)[n+]3[O-])[C@@H](C)C1 [SZ-014043] | Binding rate to KRAS G12C protein (LC-MS POC, %) 3 uM/5 min [6]: 58.5%; Binding rate to KRAS G12C protein (LC-MS POC, %) 3 uM/30 min [6]: 90.0% |
| – | – | 143 nM | – | C=CC(=O)N1CCN(c2nc(=O)n(-c3c(C)ccnc3C(C)C)c3c2cc(F)c(-c2c(O)cccc2F)[n+]3[O-])[C@@H](C)C1 [SZ-014089A/B] | – |
| – | – | 145 nM | – | C=CC(=O)N1CCN(c2nc(=O)n(-c3c(C(C)C)ncnc3C(C)C)c3c2cc(F)c(-c2cc(F)ccc2O)[n+]3[O-])[C@@H](C)C1 [SZ-014044] | Binding rate to KRAS G12C protein (LC-MS POC, %) 3 uM/5 min [6]: 84.1%; Binding rate to KRAS G12C protein (LC-MS POC, %) 3 uM/30 min [6]: 97.2% |
| – | – | 2.8 nM | – | C=CC(=O)N1CCN(c2nc(=O)n(-c3c(C(C)C)cccc3C(C)C)c3c2cc(Cl)c(-c2c(O)cccc2F)[n+]3[O-])[C@@H](C)C1 [SZ-014116AB] | – |
| – | – | 2090 nM | – | C=CC(=O)N1CCN(c2nc(=O)n(-c3c(C)ccnc3CC)c3c2cc(F)c(-c2c(F)cccc2F)[n+]3[O-])[C@@H](C)C1 [SZ-014131] | – |
| – | – | 191 nM | – | C=CC(=O)N1CCN(c2nc(=O)n(-c3c(C)ccnc3C(C)C)c3c2cc(F)c(-c2c(F)cccc2F)[n+]3[O-])[C@@H](C)C1 [SZ-014077A/B] | – |
| – | – | 11.4 nM | – | C=CC(=O)N1CCN(c2nc(=O)n(-c3c(C(C)C)ncnc3C(C)C)c3c2cc(Cl)c(-c2ccccc2O)[n+]3[O-])[C@@H](C)C1 [SZ-014031A] | – |
| – | – | 442 nM | – | C=CC(=O)N1CCN(c2nc(=O)n(-c3c(C)ccnc3C(C)C)c3c2cc(F)c(-c2ccccc2O)[n+]3[O-])[C@@H](C)C1 [SZ-014010A/B] | Binding rate to KRAS G12C protein (LC-MS POC, %) 3 uM/5 min [6]: 47.7%; Binding rate to KRAS G12C protein (LC-MS POC, %) 3 uM/30 min [6]: 84.9% |
| 0.377 | 0.616 | 41 nM | 0.587 | C=CC(=O)N1CCN(c2nc(=O)n(-c3c(C(C)C)ncnc3C(C)C)c3c2cc(F)c(-c2c(F)cccc2F)[n+]3[O-])[C@@H](C)C1 [SZ-014053] | molar concentration not bound to plasma proteins, times higher than reference compound SZ-014138 ([5]; versus SZ-014138): no less than 4 times; Binding rate to KRAS G12C protein (LC-MS POC, %) 3 uM/5 min [6]: 85.6%; Binding rate to KRAS G12C protein (LC-MS POC, %) 3 uM/30 min [6]: 100.0% |
| 0.011 | 0.203 | 34 nM | 0.129 | C=CC(=O)N1CCN(c2nc(=O)n(-c3c(C(C)C)ncnc3C(C)C)c3nc(-c4c(F)cccc4F)c(F)cc23)[C@@H](C)C1 [SZ-014138, reference compound] | – |
| – | – | 31 nM | – | C=CC(=O)N1CCN(c2nc(=O)n(-c3c(C(C)C)ncnc3C(C)C)c3c2cc(F)c(-c2ccccc2O)[n+]3[O-])[C@@H](C)C1 [SZ-014111A/B] | – |
| – | – | 405 nM | – | C=CC(=O)N1CCN(c2nc(=O)n(-c3c(C)ccnc3C(C)C)c3c2cc(F)c(-c2ccccc2F)[n+]3[O-])[C@@H](C)C1 [SZ-014011A/B] | Binding rate to KRAS G12C protein (LC-MS POC, %) 3 uM/5 min [6]: 37.8%; Binding rate to KRAS G12C protein (LC-MS POC, %) 3 uM/30 min [6]: 75.5% |
| 0.047 | 0.008 | 296 nM | 0.002 | C=CC(=O)N1CCN(c2nc(=O)n(-c3c(C(C)C)cccc3C(C)C)c3nc(-c4ccccc4)c(F)cc23)[C@@H](C)C1 [SZ-014142, reference compound] | – |
| 0.007 | 0.022 | 81 nM | 0.015 | C=CC(=O)N1CCN(c2nc(=O)n(-c3c(C(C)C)cccc3C(C)C)c3nc(-c4c(F)cccc4F)c(F)cc23)[C@@H](C)C1 [SZ-014139, reference compound] | – |
| – | – | 691 nM | – | C=CC(=O)N1CCN(c2nc(=O)n(-c3c(CC)ncnc3CC)c3c2cc(F)c(-c2c(F)cccc2F)[n+]3[O-])[C@@H](C)C1 [SZ-014119] | Binding rate to KRAS G12C protein (LC-MS POC, %) 3 uM/5 min [6]: 20.8%; Binding rate to KRAS G12C protein (LC-MS POC, %) 3 uM/30 min [6]: 79.2% |
| – | – | 36 nM | – | C=CC(=O)N1CCN(c2nc(=O)n(-c3c(C(C)C)ncnc3C(C)C)c3c2cc(F)c(-c2cccc4ccccc24)[n+]3[O-])[C@@H](C)C1 [SZ-014013A/B] | – |
| – | – | 60 nM | – | C=CC(=O)N1CCN(c2nc(=O)n(-c3c(C(C)C)ncnc3C(C)C)c3c2cc(F)c(-c2c(F)cccc2Cl)[n+]3[O-])[C@@H](C)C1 [SZ-014082A/B] | – |
| 0.008 | 0.127 | 170 nM | 0.04 | C=CC(=O)N1CCN(c2nc(=O)n(-c3c(C(C)C)ncnc3C(C)C)c3nc(-c4ccccc4)c(F)cc23)[C@@H](C)C1 [SZ-014141, reference compound] | – |
| – | – | 44 nM | – | [2H]c1c([2H])c([2H])c(-c2c(F)cc3c(N4CCN(C(=O)C=C)C[C@@H]4C)nc(=O)n(-c4c(C(C)C)ncnc4C(C)C)c3[n+]2[O-])c(O)c1[2H] [SZ-014051A/B] | – |

| SMILES | fraction unbound at 5 h, 1 μM [1] | fraction unbound at 5 h, 1 μM [2] | IC50 [3] | fraction unbound at 5 h, 1 μM [4] | also measured |
| --- | --- | --- | --- | --- | --- |
| C=CC(=O)N1CCN(c2nc(=O)n(-c3c(C)ccnc3C(C)C)c3nc(-c4c(O)cccc4F)c(F)cc23)[C@@H](C)C1 [SZ-014004A, reference compound] | 0.112 | 0.145 | 12 nM | 0.068 | – |
